Values of other authors, collected in patent US8481599B2, “Compositions and methods for increasing compliance with therapies using aldehyde dehydrogenase inhibitors and treating alcoholism” (Tonix Pharmaceuticals Inc., priority 2001, dated 2013).
Where two headings read alike, the source gives them in different places.

Key:
ALDH-I = biological target: T1, ALDH-I (Homo sapiens, UniProt P05091)
T1 sequence (P05091 18-517): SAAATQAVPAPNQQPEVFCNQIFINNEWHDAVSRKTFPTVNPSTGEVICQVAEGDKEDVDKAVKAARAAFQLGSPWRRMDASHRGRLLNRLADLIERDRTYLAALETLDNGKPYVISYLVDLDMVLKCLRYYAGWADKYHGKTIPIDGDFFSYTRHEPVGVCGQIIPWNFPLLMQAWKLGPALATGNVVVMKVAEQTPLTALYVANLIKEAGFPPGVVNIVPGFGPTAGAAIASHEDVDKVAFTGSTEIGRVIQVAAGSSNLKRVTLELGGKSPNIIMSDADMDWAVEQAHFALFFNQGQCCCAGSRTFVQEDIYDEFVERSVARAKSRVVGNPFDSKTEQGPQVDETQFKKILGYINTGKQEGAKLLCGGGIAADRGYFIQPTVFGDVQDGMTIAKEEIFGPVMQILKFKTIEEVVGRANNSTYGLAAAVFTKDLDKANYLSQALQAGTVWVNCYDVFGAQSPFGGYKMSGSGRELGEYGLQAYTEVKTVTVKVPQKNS

ALDH-II = biological target: T2, ALDH-II (Homo sapiens, UniProt P00352); conditions: in vitro
T2 sequence (P00352 1-501): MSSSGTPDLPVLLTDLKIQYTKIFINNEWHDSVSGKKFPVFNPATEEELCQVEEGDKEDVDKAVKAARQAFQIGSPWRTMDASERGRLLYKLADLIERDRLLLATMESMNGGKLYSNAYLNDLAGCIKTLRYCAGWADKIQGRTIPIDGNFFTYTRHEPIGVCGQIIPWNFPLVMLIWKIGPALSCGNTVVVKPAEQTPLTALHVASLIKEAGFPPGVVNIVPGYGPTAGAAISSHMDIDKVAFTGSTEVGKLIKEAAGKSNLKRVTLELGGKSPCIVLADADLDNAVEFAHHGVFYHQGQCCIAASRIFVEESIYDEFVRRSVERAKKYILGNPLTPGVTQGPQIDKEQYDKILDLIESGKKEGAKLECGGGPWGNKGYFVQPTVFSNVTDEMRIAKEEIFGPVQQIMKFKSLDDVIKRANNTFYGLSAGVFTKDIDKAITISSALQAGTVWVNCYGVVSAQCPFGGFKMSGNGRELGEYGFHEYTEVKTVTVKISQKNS

[1] = rat studies
ALDH = conditions: rat studies

O=c1c(-c2ccc(O)cc2)coc2cc(O[C@@H]3O[C@H](CO)[C@@H](O)[C@H](O)[C@H]3O)ccc12 [Daidzin]
inhibition of ALDH-I (ALDH-I): selective potent reversible inhibitor

N#CN [cyanamide]
inhibition of ALDH-II (ALDH-II): unable to inhibit | inhibition of ALDH-I (ALDH-I; in vitro): unable to inhibit

N5-(hydroxycyclopropyl)-L-glutamine [coprine]
suppression of ethanol consumption [1]: effectively suppressed ethanol consumption | potency as ALDH inhibitor relative to disulfiram (ALDH): more potent inhibitor of ALDH as compared to disulfiram
